Measurements from US9555029B2 (HIKMA PHARMACEUTICALS, priority 2013, dated 2017).
Where two headings read alike, the source gives them in different places.

Key:
[1] = Treatment-2: colchicine 0.6 mg + clarithromycin 250 mg twice daily (days 22-29), cited from earlier work
[2] = cited from earlier work; for Kel / T1/2el: arithmetic mean
[3] = cited from earlier work; for Kel / T1/2el: arithmetic mean; for AUCT / Cmax: geometric mean
[4] = cited from earlier work; for Kel / T1/2el: arithmetic mean; for AUCT / Cmax: geometric mean; remark: listed apart in the source
clinical = conditions: male, human, in vivo
Excerpt: Subjects were included only if they were not older than 45 years (as opposed to no upper limit). Also, in inclusion criteria the lower threshold for the body mass index was 21.00 (as opposed to 18.00) kg/m^2.

[5] = cited from earlier work
[6] = Treatment-1: colchicine 0.6 mg alone (day 1, fasted), verapamil ER study
[7] = Treatment-1: colchicine 0.6 mg alone (day 1, fasted), verapamil ER study, geometric mean
[8] = Treatment-2: colchicine 0.6 mg (day 19) + verapamil ER 240 mg once daily (days 15-19)
[9] = Treatment-1: colchicine 0.6 mg alone (day 1, fasted), diltiazem ER study
[10] = Treatment-2: colchicine 0.6 mg (day 21) + diltiazem ER 240 mg once daily (days 15-21)
[11] = Treatment-1: colchicine 0.6 mg alone (day 1, fasted), azithromycin study
[12] = Treatment-2: colchicine 0.6 mg (day 19) + azithromycin 500 mg day 15, 250 mg once daily days 16-19
[13] = colchicine coadministered with azithromycin
[14] = colchicine coadministered with clarithromycin
[15] = colchicine coadministered with cyclosporine
[16] = colchicine coadministered with diltiazem ER
[17] = colchicine coadministered with ketoconazole
[18] = colchicine coadministered with ritonavir
[19] = colchicine coadministered with verapamil ER

SMILES: COc1cc2c(c(OC)c1OC)-c1ccc(OC)c(=O)cc1[C@@H](NC(C)=O)CC2 [Colchicine, (S)N-(5,6,7,9-tetrahydro-1,2,3,10-tetramethoxy-9-oxobenzo[alpha]heptalen-7-yl)acetamide]
- Kel ([1]; arithmetic mean): 0.0296 h⁻¹
- T1/2el ([1]; arithmetic mean): 30.31 h
- CLTOT/F [1]: 12.0 L/h
- AUCT ([1]; geometric mean): 41,950 pg · h/mL
- Cmax ([1]; geometric mean): 8,440 pg/mL
- Kel [2, 6]: 0.1409 h⁻¹
- T1/2el [2, 6]: 4.3 h
- CLTOT/F [2, 6]: 43.93 L/h
- AUCT [2, 7]: 13,090 pg · h/mL
- Cmax [2, 7]: 2,970 pg/mL
- Kel [2, 8]: 0.0480 h⁻¹
- T1/2el [2, 8]: 17.17 h
- CLTOT/F [2, 8]: 21.01 L/h
- Cmax ([2]; Treatment-2: colchicine 0.6 mg (day 19) + verapamil ER 240 mg once daily (days 15-19), geometric mean): 3,850 pg/mL
- Kel [3, 9]: 0.1589 h⁻¹
- T1/2el [3, 9]: 5.51 h
- CLTOT/F [3, 9]: 58.88 L/h
- AUCT [3, 9]: 10,040 pg · h/mL
- Cmax [3, 9]: 2,170 pg/mL
- Kel [3, 10]: 0.0838 h⁻¹
- T1/2el [3, 10]: 12.5 h
- CLTOT/F [3, 10]: 34.7 L/h
- AUCT [3, 10]: 12,730 pg · h/mL
- Cmax [3, 10]: 2,800 pg/mL
- Kel [4, 11]: 0.147 h⁻¹
- T1/2el [4, 11]: 6.07 h
- CLTOT/F [4, 11]: 50.24 L/h
- AUCT [4, 11]: 11,980 pg · h/mL
- Cmax [4, 11]: 2,740 pg/mL
- Kel [4, 12]: 0.1426 h⁻¹
- T1/2el [4, 12]: 6.71 h
- CLTOT/F [4, 12]: 35.01 L/h
- AUCT [4, 12]: 17,160 pg · h/mL
- Cmax [4, 12]: 3,050 pg/mL
- CL/F (clinical; 0.6 mg): 558 mL/min
- Tmax (clinical; 0.6 mg): 1.5 h
- Vd/F (clinical; 0.6 mg): 1410 L
- AUC(0-t) (clinical; 0.6 mg, AUCT GEOMETRIC LSMEANS, Treatment-1: colchicine 0.6 mg alone, propafenone study): 16.2 ng·h/mL
- AUC(0-t) (clinical; 0.6 mg, AUCT, Treatment-1 (day 1): colchicine 0.6 mg alone, fasted, propafenone study, mean): 16.6 ng·h/mL
- AUC(0-inf) (clinical; 0.6 mg, AUC∞ GEOMETRIC LSMEANS, Treatment-1: colchicine 0.6 mg alone, propafenone study): 18.4 ng·h/mL
- AUC(0-inf) (clinical; 0.6 mg, AUC∞, Treatment-1 (day 1): colchicine 0.6 mg alone, fasted, propafenone study, mean): 18.9 ng·h/mL
- Cmax (clinical; 0.6 mg, Cmax GEOMETRIC LSMEANS, Treatment-1: colchicine 0.6 mg alone, propafenone study): 2.05 ng/mL
- Cmax (clinical; 0.6 mg, Cmax, Treatment-1 (day 1): colchicine 0.6 mg alone, fasted, propafenone study, mean): 2.12 ng/mL
- AUC(0-t) (clinical; AUCT GEOMETRIC LSMEANS, Treatment-2: colchicine 0.6 mg + propafenone): 16.4 ng·h/mL
- AUC(0-t) (clinical; AUCT, Treatment-2 (day 9): colchicine 0.6 mg + propafenone 225 mg after twice daily days 4-8, fasted, mean): 16.8 ng·h/mL
- AUC(0-inf) (clinical; AUC∞ GEOMETRIC LSMEANS, Treatment-2: colchicine 0.6 mg + propafenone): 18.4 ng·h/mL
- AUC(0-inf) (clinical; AUC∞, Treatment-2 (day 9): colchicine 0.6 mg + propafenone 225 mg after twice daily days 4-8, fasted, mean): 18.9 ng·h/mL
- Cmax (clinical; Cmax GEOMETRIC LSMEANS, Treatment-2: colchicine 0.6 mg + propafenone): 2.18 ng/mL
- Cmax (clinical; Cmax, Treatment-2 (day 9): colchicine 0.6 mg + propafenone 225 mg after twice daily days 4-8, fasted, mean): 2.21 ng/mL
- Number of 24 subjects with adverse events overall [5, 13]: 11
- Percent of 24 subjects with adverse events overall [5, 13]: (45.8) %
- Total number of adverse events [5, 13]: 27
- Number of 24 subjects with adverse events overall [5, 14]: 14
- Percent of 24 subjects with adverse events overall [5, 14]: (58.3) %
- Total number of adverse events [5, 14]: 26
- Number of 24 subjects with adverse events overall [5, 15]: 6
- Percent of 24 subjects with adverse events overall [5, 15]: (25.0%)
- Total number of adverse events [5, 15]: 5
- Number of 24 subjects with adverse events overall [5, 16]: 14
- Percent of 24 subjects with adverse events overall [5, 16]: (58.3) %
- Total number of adverse events [5, 16]: 21
- Number of 24 subjects with adverse events overall [5, 17]: 10
- Percent of 24 subjects with adverse events overall [5, 17]: (41.7) %
- Total number of adverse events [5, 17]: 11
- Number of 24 subjects with adverse events overall [5, 18]: 5
- Percent of 24 subjects with adverse events overall [5, 18]: (20.8) %
- Total number of adverse events [5, 18]: 8
- Number of 24 subjects with adverse events overall [5, 19]: 14
- Percent of 24 subjects with adverse events overall [5, 19]: (58.3) %
- Total number of adverse events [5, 19]: 22
